# In patent US20140135370A1, “TREATING CANCER WITH AN HSP90 INHIBITORY COMPOUND” (SYNTA PHARMACEUTICALS CORP., priority 2011, published 2014):
# pIC50: −log10 of the molar value. Like-named read-outs stand apart in the source and are kept apart here.
# Experiments:
# solid tumors [1] = experiment: Phase 2 study in solid tumors, twice-weekly infusion; type: in vivo, human
# From the text: (§1) Serial PK and pharmacodynamic samples were obtained during cycle 1. Safety assessments included frequency and grade of adverse events (AEs), laboratory parameters and ECG changes.
# HCC70 = experiment: 72 hr viability by CTG, HCC70; type: cell-based; settings: Homo sapiens, HCC70, Basal A
# Description: Breast cancer is a heterogeneous disease historically broken down into 4 subtypes. Various compounds were tested for their effects in cell viability assays using various breast cancer cell lines. Cellular viability was assessed using the CellTiter-Glo® Luminescent Cell Viability Assay (Promega, Madison, Wis., USA) according to the manufacturer's protocol. […] were seeded into 96-well plates based on optimal growth rates determined empirically for each line. […] CellTiter-Glo® was added (50% v/v) to the cells, and the plates incubated for 10 min prior to luminescent detection in a SpectraMax® Plus 384 microplate reader (Molecular Devices, Sunnyvale, Calif., USA). Data were normalized to percent of control and IC50 values used to determine the sensitivity of each line.
# NSCLC = experiment: Phase 2 clinical trial in NSCLC by KRAS, EGFR and ALK mutation status; type: in vivo, human
# Description: Initial cohorts were defined by mutation status: A) EGFR mutation, KRAS wild-type B) EGFR wild-type, KRAS mutation C) EGFR wild-type, KRAS wild-type (WT). If ≧2/14 patients in A, B or C were progression-free at 16 weeks, enrollment increased to 23 patients for that cohort. Tumor response was assessed every 8 weeks. Cohort D was added to include 35 additional EGFR wild-type and KRAS wild-type patients with adenocarcinoma histology. FISH analysis for ALK translocation, was performed for Cohorts C and D.
# [2] = system: MET, IGF-IR, AKT in MKN45 cells; experiment: Western blot of Hsp90 client proteins, MKN45; type: cell-based
# solid tumors [3] = experiment: Phase I dose escalation study, twice-weekly administration in patients with solid tumors; type: in vivo, human; settings: 41 of 54 enrolled patients assessable; 1-hour infusion 2 times per week, 3 weeks on, 1 week dose-free
# Description: An open-label Phase 1 dose-escalation study in subjects with solid tumors was performed. […] The first infusion for the first three subjects was staggered by a minimum of 5 days between subjects. This staggered enrollment scheme was followed for the first cohort only.
# Subsequent cohorts were originally planned to receive escalating doses of 4, 7, 10, 14, 19, 25, 33, 40 and 48 mg/m^2, provided that the previous dose was well-tolerated during cycle 1 (week 1-4). The dose escalation scheme was updated to 25, 50, 75 and 100 mg/m^2, provided that the previous dose was well-tolerated during cycle 1. Following the completion of enrollment at 50 mg/m^2 twice per week, subsequent cohorts were to be treated at 100 mg/m^2 (100% increase above prior dose) and 120 mg/m^2 (20% increase above prior dose), with further dose increments to be approximately 20% over the previous dose level, until the maximum tolerated dose (MTD) was determined. Enrollment was completed at 100 mg/m^2 and the next doses planned were 120 mg/m^2 and 144 mg/m^2.
# There had to be at least three evaluable subjects in a cohort before dose escalation could occur. […] Once a subject experienced a DLT the cohort was expanded to six subjects. If only 1 of 6 subjects experienced a DLT, further dose escalation was allowed. However, if 2 of 3 or 2 of 6 subjects experienced a DLT, dose escalation terminated. […]
# [4] = system: Hsp90 client proteins in AGS gastric cancer cells; experiment: Western blot of Hsp90 client proteins, AGS; type: cell-based
# [5] = system: Detroit 562 H/N cancer cells; experiment: Single agent viability assay, Detroit 562, 72 hr; type: cell-based
# From the text: Head and neck (H/N) cancer refers to a group of biologically similar cancers originating from the upper autodigestive tract. First line therapies include EGFR inhibitors and platins.
# [6] = system: human KRAS mutant NSCLC tumor xenografts; experiment: KRAS mutant NSCLC tumor xenografts in vivo; design: species or system mouse; settings: single agent
# Description: Female immunodeficient CD-1 (nude) mice (Charles River Laboratories, Wilmington, Mass.) were maintained in a pathogen-free environment, and all in vivo procedures were approved by the Synta Pharmaceuticals Corp. Institutional Animal Care and Use Committee. A549 NSCLC cells (7.5×10^6) were subcutaneously implanted into the animals. […] Tumor growth inhibition was determined as described previously. See Proia et al, PLoS One. 2011; 6(4):e18552.
# [7] = system: Chk1 and Chk2 phosphorylation in Detroit 562 head and neck cancer cells; experiment: Western blot after bleomycin, Detroit 562; type: cell-based; settings: 100 nM 24 hours prior to bleomycin (5 μM)
# Description: Protein expression of Parp, P-Chk1, P-Chk2, and Gapdh (control) was measured at the indicated time points (1, 4, and 8 hours) after bleomycin treatment.
# Protein expression was measured at the indicated time points after bleomycin treatment.
# GIST = experiment: Phase 2 study in gastrointestinal stromal tumors (GIST); type: in vivo, human
# Description: GIST status was assessed at 8 weeks per RECIST, until progression.
# [8] = Serial PK in patients with solid tumors, twice-weekly infusion; type: in vivo, human
# From the text: as §1
# Hs746T = experiment: 72 hr viability by Syto60, Hs746T; type: cell-based; settings: Homo sapiens
# Description: Many of the oncoproteins associated with gastric cancer and Hsp90 client proteins including HER2, MET, RAS and the FGFR family. […] Cells were treated for 72 hr and viability determined by CTG (upper) or Syto60 (lower).
# [9] = Pharmacokinetics in the Phase 1 combination trial with docetaxel; type: in vivo, human; settings: patients
# Description: A trial to evaluate three dose-level combinations of docetaxel and the compound of formula (I), administered on a three-week cycle, with the primary objective of determining an optimal dose for future clinical trials was performed. […] The standard of care dose level for docetaxel was 75 mg/m^2. A total of 19 patients received at least one dose of study treatment at the cut-off time. The median number of cycles of treatment was 4, with a range of 1 to 11 cycles of treatment. No prophylactic treatment for neutropenia was used.
# Description for metastatic breast cancer: The primary endpoint of the trial was overall response rate using RECIST 1.1. Patients with HER2+ breast cancer were required to have received prior therapy with trastuzumab. No more than 3 lines of chemotherapy in the metastatic setting were permitted, but there was no limit on prior lines of hormone therapy. Patients were evaluated for response after 2 cycles. The trial used a Simon two-stage design requiring at least 3 responses among the first 22 patients, to allow expansion to a total of 40 patients.
smiles,measurement,setting,value
"CC(C)c1cc(-c2nnc(O)n2-c2ccc3c(ccn3C)c2)c(O)cc1O [compound of formula (I), ganetespib]",Tolerability,solid tumors [1]; twice-weekly,well-tolerated administered twice-weekly
same,Response in a patient with metastatic melanoma,solid tumors [1]; twice-weekly dosing,confirmed durable PR by RECIST
same,pIC50,HCC70,6.94
same,Adverse events reported in >20% of patients,"NSCLC; 73 patients, 200 mg/m^2 once weekly for 3 of a 4-wk cycle, generally grade 1-2","diarrhea, fatigue, nausea, anorexia, constipation, and dyspnea"
same,Objective response rate (CR + PR),"NSCLC; ALK+ patients, 4/8",50%
same,"Best response reported, cohort C","NSCLC; Cohort C: EGFR wild-type, KRAS wild-type",durable partial response (PR)
same,Tolerability,"NSCLC; single agent, 200 mg/m^2 once weekly","well-tolerated in patients with NSCLC at 200 mg/m^2 once weekly without severe liver, ocular, cardiovascular or renal toxicity"
same,"Effect on MET, IGF-IR and AKT",[2],"complete degradation of MET and IGF-IR, followed by inactivation of AKT"
same,"Confirmed partial responses, melanoma",solid tumors [3],1 patient
same,"Confirmed partial responses, triple negative breast cancer",solid tumors [3],1 patient
same,Effect on B-RAF expression,[4],enhanced B-RAF expression
same,Effect on Hsp90 client protein expression,[4],"abolished the expression of EGFR, IGF-IR, C-RAF and their down-stream effectors PI3K/AKT and MAPK"
same,Extent of cell kill after 72 hr exposure,[5],A fraction of cells remained viable
same,Growth of tumor xenografts,[6],effectively suppressed the growth
same,Effect on bleomycin-increased Chk1 and Chk2 phosphorylation,[7],blocked
same,Patients with SD≧8 wks,GIST; 23 evaluable patients,8 patients
same,Patients with SD≧16 wks,GIST; 23 evaluable patients,4 patients
same,Tolerability,GIST; once-weekly dosing,"well-tolerated in patients with heavily pre-treated advanced GIST, with no evidence of severe liver, ocular, cardiac or renal toxicity"
same,Distribution,[8],rapid distribution
same,pIC50,Hs746T,6.42
same,CBR (CR + PR + SD > 6 months),metastatic breast cancer; ER+/HER2− (N = 6),0 patients
same,CR,metastatic breast cancer; ER+/HER2− (N = 6),0 patients
same,ORR,metastatic breast cancer; ER+/HER2− (N = 6),0 patients
same,PR,metastatic breast cancer; ER+/HER2− (N = 6),0 patients
same,CBR (CR + PR + SD > 6 months),metastatic breast cancer; HER2+ (N = 13),2 (9%) patients (%)
same,CR,metastatic breast cancer; HER2+ (N = 13),0 patients
same,ORR,metastatic breast cancer; HER2+ (N = 13),2 (9%) patients (%)
same,PR,metastatic breast cancer; HER2+ (N = 13),2 patients
same,CBR (CR + PR + SD > 6 months),metastatic breast cancer; TNBC (N = 3),0 patients
same,CR,metastatic breast cancer; TNBC (N = 3),0 patients
same,ORR,metastatic breast cancer; TNBC (N = 3),0 patients
same,PR,metastatic breast cancer; TNBC (N = 3),0 patients
same,CBR (CR + PR + SD > 6 months),metastatic breast cancer; Total (N = 22),2 (9%) patients (%)
same,CR,metastatic breast cancer; Total (N = 22),0 patients
same,PR,metastatic breast cancer; Total (N = 22),2 (9%) patients (%)
same,ORR,"metastatic breast cancer; Total (N = 22), 200 mg/m^2 once weekly 3 weeks of 28 day cycle, RECIST 1.1",2 (9%) patients (%)
same,Effect on docetaxel pharmacokinetics,[9],no effect
same,Pharmacokinetics alone versus administered prior to docetaxel,[9],pharmacokinetic similarity
